Laboratory results published in publication PMC5218480 (PLoS ONE, 2017).

Tested on: MV-4-11 cells
Test: Gene expression microarray analysis (Affymetrix PrimeView) and GSEA
Type: cell-based, human
Parameters: RFU PODN (11730768_x_at) / Fold change /veh PODN (11730768_x_at) / RFU LINC00158 (11744669_a_at) / Fold change /veh LINC00158 (11744669_a_at) / RFU DUSP10 (11751237_a_at) / Fold change /veh DUSP10 (11751237_a_at) / RFU ID3 (11757404_x_at) / Fold change /veh ID3 (11757404_x_at) / RFU PLEKHG5 (11737974_s_at) / Fold change /veh PLEKHG5 (11737974_s_at) / RFU LRRC4B (11730491_at) / Fold change /veh LRRC4B (11730491_at) / RFU GIMAP4 (11747438_a_at) / Fold change /veh GIMAP4 (11747438_a_at) / RFU KRT8 (11758183_x_at) / Fold change /veh KRT8 (11758183_x_at) / RFU CNN1 (11734310_a_at) / Fold change /veh CNN1 (11734310_a_at) / RFU VPS37D (11726825_at) / Fold change /veh VPS37D (11726825_at) / RFU C10orf10 (11716522_x_at) / Fold change /veh C10orf10 (11716522_x_at) / RFU KIR2DL2 /// KIR2DL4 /// KIR2DL5A /// KIR2DL5B /// KIR2DS1 /// KIR2DS2 /// KIR2DS3 /// KIR2DS4 /// KIR3DL3 /// KIR3DL3 /// KIR3DS1 (11738374_at) / Fold change /veh KIR2DL2 /// KIR2DL4 /// KIR2DL5A /// KIR2DL5B /// KIR2DS1 /// KIR2DS2 /// KIR2DS3 /// KIR2DS4 /// KIR3DL3 /// KIR3DL3 /// KIR3DS1 (11738374_at) / RFU C1QL1 (11718748_at) / Fold change /veh C1QL1 (11718748_at) / RFU TMPRSS4 (11747572_a_at) / Fold change /veh TMPRSS4 (11747572_a_at) / RFU HAMP (11756126_x_at) / Fold change /veh HAMP (11756126_x_at) / RFU RNFT2 (11725882_a_at) / Fold change /veh RNFT2 (11725882_a_at) / RFU NR4A2 (11747474_a_at) / Fold change /veh NR4A2 (11747474_a_at) / RFU ABCC12 (11746883_a_at) / Fold change /veh ABCC12 (11746883_a_at) / RFU TMEM136 (11760407_x_at) / Fold change /veh TMEM136 (11760407_x_at) / RFU CLDN22 /// WWC2 (11732394_at) / Fold change /veh CLDN22 /// WWC2 (11732394_at) / RFU HLA-DPB1 (11760878_x_at) / Fold change /veh HLA-DPB1 (11760878_x_at) / RFU SPINT1 (11716480_a_at) / Fold change /veh SPINT1 (11716480_a_at) / RFU GAP43 (11754022_s_at) / Fold change /veh GAP43 (11754022_s_at) / RFU A4GNT (11735810_at) / Fold change /veh A4GNT (11735810_at) / RFU PRB3 (11715151_x_at) / Fold change /veh PRB3 (11715151_x_at) / RFU TUBB4B (11761932_at) / Fold change /veh TUBB4B (11761932_at) / RFU CAPN14 (11732068_a_at) / Fold change /veh CAPN14 (11732068_a_at) / RFU TMCC2 (11721928_a_at) / Fold change /veh TMCC2 (11721928_a_at) / RFU IRGQ (11745062_a_at) / Fold change /veh IRGQ (11745062_a_at) / RFU FAM174B (11720279_a_at) / Fold change /veh FAM174B (11720279_a_at) / RFU TMPRSS4 (11748680_a_at) / Fold change /veh TMPRSS4 (11748680_a_at) / RFU FAM212B (11763350_a_at) / Fold change /veh FAM212B (11763350_a_at) / RFU PLEKHG5 (11743358_a_at) / Fold change /veh PLEKHG5 (11743358_a_at) / RFU ZSCAN30 (11745921_a_at) / Fold change /veh ZSCAN30 (11745921_a_at) / RFU CMKLR1 (11741424_a_at) / Fold change /veh CMKLR1 (11741424_a_at) / RFU LOC101060620 /// MAPK8IP1 (11723275_at) / Fold change /veh LOC101060620 /// MAPK8IP1 (11723275_at) / RFU SPTSSB (11747773_x_at) / Fold change /veh SPTSSB (11747773_x_at) / RFU PRSS12 (11739890_at) / Fold change /veh PRSS12 (11739890_at) / RFU BIN1 (11741810_x_at) / Fold change /veh BIN1 (11741810_x_at) / RFU WNT11 (11732464_a_at) / Fold change /veh WNT11 (11732464_a_at) / RFU C10orf10 (11716521_a_at) / Fold change /veh C10orf10 (11716521_a_at) / RFU C5orf56 (11738089_at) / Fold change /veh C5orf56 (11738089_at) / RFU CYB561 (11721691_x_at) / Fold change /veh CYB561 (11721691_x_at) / RFU ANKRD19P (11752326_a_at) / Fold change /veh ANKRD19P (11752326_a_at) / RFU OR2T12 /// OR2T33 /// OR2T8 (11738714_s_at) / Fold change /veh OR2T12 /// OR2T33 /// OR2T8 (11738714_s_at) / RFU VCAN (11748164_a_at) / Fold change /veh VCAN (11748164_a_at) / RFU JSRP1 (11732532_at) / Fold change /veh JSRP1 (11732532_at) / RFU KRTAP10-11 (11738290_x_at) / Fold change /veh KRTAP10-11 (11738290_x_at) / RFU MYO3A (11730013_a_at) / Fold change /veh MYO3A (11730013_a_at) / RFU EBF3 (11725865_a_at) / Fold change /veh EBF3 (11725865_a_at) / RFU CAMK2N1 (11719241_x_at) / Fold change /veh CAMK2N1 (11719241_x_at) / RFU C5orf56 (11738088_a_at) / Fold change /veh C5orf56 (11738088_a_at) / RFU OLFML3 (11715873_a_at) / Fold change /veh OLFML3 (11715873_a_at) / RFU LOC100653217 /// NTM (11731650_a_at) / Fold change /veh LOC100653217 /// NTM (11731650_a_at) / RFU MAPK11 (11762145_a_at) / Fold change /veh MAPK11 (11762145_a_at) / RFU FIZ1 (11724087_x_at) / Fold change /veh FIZ1 (11724087_x_at) / RFU OASL (11726364_x_at) / Fold change /veh OASL (11726364_x_at) / RFU SOX15 (11748057_x_at) / Fold change /veh SOX15 (11748057_x_at) / RFU CD79A (11719716_a_at) / Fold change /veh CD79A (11719716_a_at) / RFU HIST1H1D (11736915_at) / Fold change /veh HIST1H1D (11736915_at) / RFU CASKIN2 (11723855_a_at) / Fold change /veh CASKIN2 (11723855_a_at) / RFU LOC730098 (11760151_x_at) / Fold change /veh LOC730098 (11760151_x_at) / RFU OR4N2 (11742367_at) / Fold change /veh OR4N2 (11742367_at) / RFU PRRT2 (11749266_a_at) / Fold change /veh PRRT2 (11749266_a_at) / RFU SNX32 (11753110_a_at) / Fold change /veh SNX32 (11753110_a_at) / RFU CDHR5 (11726645_a_at) / Fold change /veh CDHR5 (11726645_a_at) / RFU RCAN1 (11760418_a_at) / Fold change /veh RCAN1 (11760418_a_at) / RFU FAM167A (11723789_a_at) / Fold change /veh FAM167A (11723789_a_at) / RFU FAM26E (11764081_at) / Fold change /veh FAM26E (11764081_at) / RFU ISYNA1 (11749810_s_at) / Fold change /veh ISYNA1 (11749810_s_at) / RFU ACY1 (11761880_at) / Fold change /veh ACY1 (11761880_at) / RFU 11764098_at / Fold change /veh 11764098_at / RFU SAMD14 (11745864_x_at) / Fold change /veh SAMD14 (11745864_x_at) / RFU NPB (11741838_a_at) / Fold change /veh NPB (11741838_a_at) / RFU TMPRSS6 (11731388_a_at) / Fold change /veh TMPRSS6 (11731388_a_at) / RFU KRTAP10-2 (11738614_at) / Fold change /veh KRTAP10-2 (11738614_at) / RFU ARHGAP8 /// PRR5-ARHGAP8 (11727945_x_at) / Fold change /veh ARHGAP8 /// PRR5-ARHGAP8 (11727945_x_at) / RFU KRTAP5-7 /// NADSYN1 (11734609_at) / Fold change /veh KRTAP5-7 /// NADSYN1 (11734609_at) / RFU RASL12 (11751679_a_at) / Fold change /veh RASL12 (11751679_a_at) / RFU CDKN2B (11736163_a_at) / Fold change /veh CDKN2B (11736163_a_at) / RFU PRF1 (11729649_at) / Fold change /veh PRF1 (11729649_at) / RFU, ZNF638 /// ZNF638-IT1 / Fold change vs veh, ZNF638 /// ZNF638-IT1 / RFU, PANK3 / Fold change vs veh, PANK3 / RFU, SH3YL1 / Fold change vs veh, SH3YL1 / RFU, ZEB2 / Fold change vs veh, ZEB2 / RFU, NRIP1 / Fold change vs veh, NRIP1 / RFU, PTTG1IP / Fold change vs veh, PTTG1IP / RFU, CAPN2 / Fold change vs veh, CAPN2 / RFU, MED14 / Fold change vs veh, MED14 / RFU, SNORA58 / Fold change vs veh, SNORA58 / RFU, C1orf63 / Fold change vs veh, C1orf63 / RFU, LRRFIP1 / Fold change vs veh, LRRFIP1 / RFU, NDUFAF7 / Fold change vs veh, NDUFAF7 / RFU, SLC12A2 / Fold change vs veh, SLC12A2 / RFU, IBTK / Fold change vs veh, IBTK / RFU, ESF1 / Fold change vs veh, ESF1 / Fold change vs veh, TMEM50B / RFU, TAOK1 / Fold change vs veh, TAOK1 / RFU, ACBD3 / Fold change vs veh, ACBD3 / RFU, TMA16 / Fold change vs veh, TMA16 / RFU, RWDD3 / Fold change vs veh, RWDD3 / RFU, BCAT1 / Fold change vs veh, BCAT1 / RFU, EDEM3 / Fold change vs veh, EDEM3 / RFU, TMEM33 / Fold change vs veh, TMEM33 / RFU, WDR75 / Fold change vs veh, WDR75 / RFU, AHCTF1 / Fold change vs veh, AHCTF1 / RFU, TFRC / Fold change vs veh, TFRC / RFU, ZDHHC17 / Fold change vs veh, ZDHHC17 / RFU, NOM1 / Fold change vs veh, NOM1 / RFU, ARL8B / Fold change vs veh, ARL8B / RFU, ZBTB11 / Fold change vs veh, ZBTB11 / RFU, TAMM41 / Fold change vs veh, TAMM41 / RFU, KIAA1704 /// LOC100996395 / Fold change vs veh, KIAA1704 /// LOC100996395 / RFU, ING1 / Fold change vs veh, ING1 / RFU, TRMT61B / Fold change vs veh, TRMT61B / RFU, FUBP3 / Fold change vs veh, FUBP3 / RFU, TP53 / Fold change vs veh, TP53 / RFU, TNKS2 / Fold change vs veh, TNKS2 / RFU, ZFP14 / Fold change vs veh, ZFP14 / RFU, ACTR2 / Fold change vs veh, ACTR2 / RFU, PPP3R1 / Fold change vs veh, PPP3R1 / RFU, PIK3R1 / Fold change vs veh, PIK3R1 / RFU, HNRNPA1 / Fold change vs veh, HNRNPA1 / RFU, RNF170 / Fold change vs veh, RNF170 / RFU, ZNF28 / Fold change vs veh, ZNF28 / RFU, RNGTT / Fold change vs veh, RNGTT / RFU, OGT / Fold change vs veh, OGT / RFU, BRD1 / Fold change vs veh, BRD1 / RFU, MARS / Fold change vs veh, MARS / RFU, ZNF655 / Fold change vs veh, ZNF655 / RFU, FAHD1 / Fold change vs veh, FAHD1 / RFU, BDP1 / Fold change vs veh, BDP1 / RFU, LRRCC1 / Fold change vs veh, LRRCC1 / RFU, ARID1A / Fold change vs veh, ARID1A / RFU, ZNF146 / Fold change vs veh, ZNF146 / RFU, ZNF330 / Fold change vs veh, ZNF330 / RFU, GPN3 / Fold change vs veh, GPN3 / RFU, C9orf123 / Fold change vs veh, C9orf123 / RFU, N4BP2L2 / Fold change vs veh, N4BP2L2 / RFU, ARFIP1 / Fold change vs veh, ARFIP1 / RFU, FAM179B / Fold change vs veh, FAM179B / RFU, BCL10 / Fold change vs veh, BCL10 / RFU, UHRF1BP1L / Fold change vs veh, UHRF1BP1L / RFU, BET1 / Fold change vs veh, BET1 / RFU, CNOT2 / Fold change vs veh, CNOT2 / RFU, ZNF268 / Fold change vs veh, ZNF268 / Fold change vs veh, ZNF507 / RFU, DGCR2 / Fold change vs veh, DGCR2 / RFU, WDSUB1 / Fold change vs veh, WDSUB1 / Fold change vs veh, HSP90B1 /// MIR3652 / RFU, ADSS / Fold change vs veh, ADSS / RFU, GK / Fold change vs veh, GK / RFU, ZNF148 / Fold change vs veh, ZNF148 / RFU, TAF9 / Fold change vs veh, TAF9 / RFU, SLC1A5 / Fold change vs veh, SLC1A5 / RFU, SLMO2 / Fold change vs veh, SLMO2 / RFU, ABCC4 / Fold change vs veh, ABCC4 / RFU, LOC101060439 /// RAP1B / Fold change vs veh, LOC101060439 /// RAP1B / RFU, RFX7 / Fold change vs veh, RFX7 / RFU, GTPBP10 / Fold change vs veh, GTPBP10 / RFU, CNEP1R1 / Fold change vs veh, CNEP1R1 / RFU, BIVM-ERCC5 /// ERCC5 / Fold change vs veh, BIVM-ERCC5 /// ERCC5 / RFU, ILF3 / Fold change vs veh, ILF3 / RFU 11762660_at / Fold change /veh 11762660_at / RFU VCAN (11757783_s_at) / Fold change /veh VCAN (11757783_s_at) / RFU DDX43 (11728927_at) / Fold change /veh DDX43 (11728927_at) / RFU KRT8 (11758188_x_at) / Fold change /veh KRT8 (11758188_x_at) / RFU NKD1 (11759106_at) / Fold change /veh NKD1 (11759106_at) / RFU SRD5A1 (11742802_a_at) / Fold change /veh SRD5A1 (11742802_a_at) / RFU TPSAB1 /// TPSB2 (11721975_s_at) / Fold change /veh TPSAB1 /// TPSB2 (11721975_s_at) / RFU GSTM3 (11746129_a_at) / Fold change /veh GSTM3 (11746129_a_at) / RFU IL23R (11737362_x_at) / Fold change /veh IL23R (11737362_x_at) / RFU TMEM51 (11727254_a_at) / Fold change /veh TMEM51 (11727254_a_at) / RFU PIWIL2 (11732686_x_at) / Fold change /veh PIWIL2 (11732686_x_at) / RFU ORM1 (11744905_x_at) / Fold change /veh ORM1 (11744905_x_at) / RFU CCDC152 (11743942_at) / Fold change /veh CCDC152 (11743942_at) / RFU ECM1 (11717891_a_at) / Fold change /veh ECM1 (11717891_a_at) / RFU IL23R (11748794_a_at) / Fold change /veh IL23R (11748794_a_at) / RFU TNFAIP8L3 (11732012_x_at) / Fold change /veh TNFAIP8L3 (11732012_x_at) / RFU MBOAT4 (11741988_at) / Fold change /veh MBOAT4 (11741988_at) / RFU 11764193_at / Fold change /veh 11764193_at / RFU TMEM53 (11763286_at) / Fold change /veh TMEM53 (11763286_at) / RFU MAGEB2 (11727129_at) / Fold change /veh MAGEB2 (11727129_at) / RFU TMEM200A (11744735_a_at) / Fold change /veh TMEM200A (11744735_a_at) / RFU CCDC152 (11751479_a_at) / Fold change /veh CCDC152 (11751479_a_at) / RFU FAM211A (11726209_a_at) / Fold change /veh FAM211A (11726209_a_at) / RFU RGS16 (11746705_a_at) / Fold change /veh RGS16 (11746705_a_at) / RFU VCAN (11755009_s_at) / Fold change /veh VCAN (11755009_s_at) / RFU RHOB (11743442_s_at) / Fold change /veh RHOB (11743442_s_at) / RFU RGS16 (11720943_a_at) / Fold change /veh RGS16 (11720943_a_at) / RFU RGS16 (11720944_at) / Fold change /veh RGS16 (11720944_at) / RFU, VPS4B / Fold change vs veh, VPS4B / RFU, CREB1 / Fold change vs veh, CREB1 / RFU, DNAJC13 / Fold change vs veh, DNAJC13 / RFU, GNAQ / Fold change vs veh, GNAQ / RFU, CDK5R1 / Fold change vs veh, CDK5R1 / RFU, ZRANB3 / Fold change vs veh, ZRANB3 / RFU, CUL4A / Fold change vs veh, CUL4A / RFU, CCNY / Fold change vs veh, CCNY / RFU, UFL1 / Fold change vs veh, UFL1 / RFU, COG3 / Fold change vs veh, COG3 / RFU, DIAPH2 / Fold change vs veh, DIAPH2 / RFU, SKA2 / Fold change vs veh, SKA2 / RFU, AFF3 / Fold change vs veh, AFF3 / RFU, LMF1 / Fold change vs veh, LMF1 / RFU, IPO11 / Fold change vs veh, IPO11 / RFU, DFFB / Fold change vs veh, DFFB / RFU, FOXP1 / Fold change vs veh, FOXP1 / RFU, CARD8 / Fold change vs veh, CARD8 / RFU, STRN3 / Fold change vs veh, STRN3 / RFU, ADK / Fold change vs veh, ADK / RFU, RASSF2 / Fold change vs veh, RASSF2 / RFU, WIPF1 / Fold change vs veh, WIPF1 / RFU, LARP1B / Fold change vs veh, LARP1B / RFU, RASA1 / Fold change vs veh, RASA1 / RFU, RB1 / Fold change vs veh, RB1 / RFU, PPFIA1 / Fold change vs veh, PPFIA1 / RFU, MAT2A / Fold change vs veh, MAT2A / RFU, CCT5 / Fold change vs veh, CCT5 / RFU, WDR92 / Fold change vs veh, WDR92 / RFU, CUX1 / Fold change vs veh, CUX1 / RFU, TTC7A / Fold change vs veh, TTC7A / RFU, TMEM135 / Fold change vs veh, TMEM135 / RFU, DEPTOR / Fold change vs veh, DEPTOR / RFU, CPM / Fold change vs veh, CPM / RFU, DNAJB6 / Fold change vs veh, DNAJB6 / RFU, CACNA2D3 / Fold change vs veh, CACNA2D3 / RFU, DTX4 / Fold change vs veh, DTX4 / RFU, TFCP2 / Fold change vs veh, TFCP2 / RFU, GMCL1 /// GMCL1P1 / Fold change vs veh, GMCL1 /// GMCL1P1 / RFU, AEBP2 / Fold change vs veh, AEBP2 / RFU, SNHG1 /// SNORD22 /// SNORD25 /// SNORD26 /// SNORD27 /// SNORD28 /// SNORD29 /// SNORD31 / Fold change vs veh, SNHG1 /// SNORD22 /// SNORD25 /// SNORD26 /// SNORD27 /// SNORD28 /// SNORD29 /// SNORD31 / Fold change (Aza/veh), C12orf56 (ProbeSet 11735607_a_at) / Fold change (ACY-1035/veh), C12orf56 (ProbeSet 11735607_a_at) / Fold change (Aza/veh), FGFR1OP (ProbeSet 11751329_s_at) / Fold change (ACY-1035/veh), FGFR1OP (ProbeSet 11751329_s_at) / Fold change (Aza/veh), VPS36 (ProbeSet 11739960_a_at) / Fold change (ACY-1035/veh), VPS36 (ProbeSet 11739960_a_at) / RFU SYPL1 (11715823_x_at) / Fold change /veh SYPL1 (11715823_x_at) / RFU IGFBP7 (11715501_s_at) / Fold change /veh IGFBP7 (11715501_s_at) / RFU REEP3 (11722064_at) / Fold change /veh REEP3 (11722064_at) / RFU IGLL1 (11728026_x_at) / Fold change /veh IGLL1 (11728026_x_at): dose or concentration left out as unconfirmed
Conditions: ProbeSet 11717876_a_at; LIST D

Nc1ncn([C@@H]2O[C@H](CO)[C@@H](O)[C@H]2O)c(=O)n1 [azacitidine]
Fold change vs veh, PPFIA1: 0.68
